Source: ChEMBL document CHEMBL4765232 (J Med Chem, 2016)
Calls of active or inactive are those of the source. The rule behind the calls is not given here.

How the values were obtained:
[1] = Toxicity in Sprague-Dawley rat at 100 to 600 mg/kg, po QD administered via gavage as single dose for 28 days; type: organism-based; conditions: in vivo, 672 h, dose 100-600 mg/kg, time 28 day
[2] = Volume of distribution at steady state in Sprague-Dawley rat at 1 mg/kg, iv; type: ADME, organism-based; conditions: in vivo, read-out: Vdss
[3] = Tmax in Beagle dog at 5 mg/kg, po; type: ADME, organism-based, Canis lupus familiaris; conditions: in vivo
[4] = Clearance in Sprague-Dawley rat at 1 mg/kg, iv relative to liver blood flow; type: ADME, organism-based; conditions: in vivo
[5] = Unbound clearance in Sprague-Dawley rat at 1 mg/kg, iv; type: ADME, organism-based; conditions: in vivo
[6] = Unbound Cmax in Balb/c mouse at 100 mg/kg, po formulated in 0.5 % methyl cellulose maintained at pH 3 to 4; type: ADME, organism-based; conditions: in vivo, pH 3, 100 mg/kg
[7] = Clearance in Beagle dog at 1 mg/kg, iv; type: ADME, organism-based, Canis lupus familiaris; conditions: in vivo
[8] = Intrinsic clearance in rat liver microsomes assessed per mg protein; type: ADME, Microsome
[9] = Intrinsic clearance in dog liver microsomes assessed per mg protein; type: ADME, Canis lupus familiaris, Microsome
[10] = Oral bioavailability in Sprague-Dawley rat at 25 mg/kg; type: ADME, organism-based; conditions: in vivo
Cytochrome P450 3A4 = Cytochrome P450 3A4 (Homo sapiens, UniProt P08684); assay: Time dependent inhibition of CYP3A4 (unknown origin); type: ADME
[11] = Half life in Sprague-Dawley rat plasma at 1 mg/kg, iv; type: ADME, organism-based
[12] = Half life in Balb/c mouse plasma at 1 mg/kg, iv formulated with 5:60:35 DMA/PEG400/20% SBECD; type: ADME, organism-based
Cytochrome P450 2C8 = target: T1, Cytochrome P450 2C8 (Homo sapiens, UniProt P10632); assay: Time dependent inhibition of CYP2C8 (unknown origin); type: ADME
T1 sequence (P10632 whole entry): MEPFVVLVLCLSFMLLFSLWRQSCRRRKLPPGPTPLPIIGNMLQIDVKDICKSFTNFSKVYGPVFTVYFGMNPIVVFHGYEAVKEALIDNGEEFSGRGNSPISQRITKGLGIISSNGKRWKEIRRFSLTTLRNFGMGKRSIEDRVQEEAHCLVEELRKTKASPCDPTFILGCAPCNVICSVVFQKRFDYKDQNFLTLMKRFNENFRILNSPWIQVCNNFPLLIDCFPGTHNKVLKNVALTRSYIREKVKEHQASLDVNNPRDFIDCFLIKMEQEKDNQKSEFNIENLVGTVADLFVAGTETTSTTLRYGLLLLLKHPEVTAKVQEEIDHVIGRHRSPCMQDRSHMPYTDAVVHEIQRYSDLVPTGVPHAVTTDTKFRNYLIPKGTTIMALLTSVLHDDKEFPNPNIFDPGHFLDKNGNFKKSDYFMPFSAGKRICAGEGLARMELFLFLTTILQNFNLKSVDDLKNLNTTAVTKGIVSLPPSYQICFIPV

[13] = Clearance in Balb/c mouse at 1 mg/kg, iv formulated with 5:60:35 DMA/PEG400/20% SBECD; type: ADME, organism-based; conditions: in vivo
[14] = Intrinsic clearance in mouse liver microsomes assessed per mg protein; type: ADME, Microsome
CYP2C8 = target: T2, CYP2C8 (Homo sapiens, UniProt P10632); assay: Inhibition of CYP2C8 (unknown origin) at 10 uM relative to control; type: ADME
T2 sequence (P10632 whole entry): T1 sequence (P10632 whole entry)

Cytochrome P450 2D6 = Cytochrome P450 2D6 (Homo sapiens, UniProt P10635); assay: Time dependent inhibition of CYP2D6 (unknown origin); type: ADME
CYP3A4 = CYP3A4 (Homo sapiens, UniProt P08684); assay: Inhibition of CYP3A4 (unknown origin) at 10 uM relative to control; type: ADME
[15] = Drug concentration in plasma of CB17 SCID mouse xenografted with human KARPAS-422 cells at 160 mg/kg, po BID administered for 17 days and measured up to 12 hrs post last dose by LC-MS analysis; type: ADME, organism-based; conditions: time 17 day
[16] = Cmax in Sprague-Dawley rat at 25 mg/kg, po; type: ADME, organism-based; set-up: route oral, dose 25 mg/kg; conditions: in vivo
[17] = Cmax in Balb/c mouse at 100 mg/kg, po formulated in 0.5 % methyl cellulose maintained at pH 3 to 4; type: ADME, organism-based; set-up: route oral, dose 100 mg/kg; conditions: in vivo, pH 3, 100 mg/kg
[18] = Clearance in Balb/c mouse at 1 mg/kg, iv formulated with 5:60:35 DMA/PEG400/20% SBECD relative to liver blood flow; type: ADME, organism-based; conditions: in vivo
KARPAS-422 = assay: Antitumor activity against human KARPAS-422 cells harboring EZH2 Y641N mutant xenografted in CB17 SCID mouse assessed as tumor regression at 160 mg/kg, po BID and measured within 2 weeks by caliper method; type: functional, organism-based
[19] = Fraction unbound in Beagle dog plasma; type: ADME, cell-free, Canis lupus familiaris
CYP2D6 = CYP2D6 (Homo sapiens, UniProt P10635); assay: Inhibition of CYP2D6 (unknown origin) at 10 uM relative to control; type: ADME
Cytochrome P450 2C9 = Cytochrome P450 2C9 (Homo sapiens, UniProt P11712); assay: Time dependent inhibition of CYP2C9 (unknown origin); type: ADME
[20] = Protein binding in mouse plasma assessed as bound fraction; type: ADME, cell-free
[21] = AUC (0 to infinity) in Beagle dog at 5 mg/kg, po; type: ADME, organism-based, Canis lupus familiaris; set-up: route oral, time infinity, dose 5 mg/kg; conditions: in vivo
[22] = Protein binding in rat plasma assessed as bound fraction; type: ADME, cell-free; conditions: read-out: PPB (converted)
Cytochrome P450 1A2 = target: T3, Cytochrome P450 1A2 (Homo sapiens, UniProt P05177); assay: Time dependent inhibition of CYP1A2 (unknown origin); type: ADME
T3 sequence (P05177 whole entry): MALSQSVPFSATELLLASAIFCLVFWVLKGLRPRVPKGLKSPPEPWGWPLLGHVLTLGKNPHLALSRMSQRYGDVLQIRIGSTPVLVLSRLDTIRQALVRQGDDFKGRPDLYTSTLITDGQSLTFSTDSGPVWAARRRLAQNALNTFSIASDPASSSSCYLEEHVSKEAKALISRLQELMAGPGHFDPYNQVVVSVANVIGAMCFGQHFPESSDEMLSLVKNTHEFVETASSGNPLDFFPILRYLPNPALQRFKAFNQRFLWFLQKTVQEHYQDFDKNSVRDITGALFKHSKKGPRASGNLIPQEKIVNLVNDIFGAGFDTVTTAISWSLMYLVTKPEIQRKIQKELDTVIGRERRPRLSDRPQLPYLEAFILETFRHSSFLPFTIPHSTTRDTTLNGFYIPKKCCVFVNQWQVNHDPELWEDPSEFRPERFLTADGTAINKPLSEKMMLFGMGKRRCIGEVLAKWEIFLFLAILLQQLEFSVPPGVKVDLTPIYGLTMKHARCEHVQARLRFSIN

[23] = Clearance in Sprague-Dawley rat at 1 mg/kg, iv; type: ADME, organism-based; conditions: in vivo
[24] = Toxicity in CB17 SCID mouse xenografted with human KARPAS-422 cells harboring EZH2 Y641N mutant assessed as effect body weight loss at 160 mg/kg, po BID administered for 25 days; type: organism-based; conditions: in vivo, 600 h, time 25 day

Sequence of Cytochrome P450 2C9 (P11712 whole entry): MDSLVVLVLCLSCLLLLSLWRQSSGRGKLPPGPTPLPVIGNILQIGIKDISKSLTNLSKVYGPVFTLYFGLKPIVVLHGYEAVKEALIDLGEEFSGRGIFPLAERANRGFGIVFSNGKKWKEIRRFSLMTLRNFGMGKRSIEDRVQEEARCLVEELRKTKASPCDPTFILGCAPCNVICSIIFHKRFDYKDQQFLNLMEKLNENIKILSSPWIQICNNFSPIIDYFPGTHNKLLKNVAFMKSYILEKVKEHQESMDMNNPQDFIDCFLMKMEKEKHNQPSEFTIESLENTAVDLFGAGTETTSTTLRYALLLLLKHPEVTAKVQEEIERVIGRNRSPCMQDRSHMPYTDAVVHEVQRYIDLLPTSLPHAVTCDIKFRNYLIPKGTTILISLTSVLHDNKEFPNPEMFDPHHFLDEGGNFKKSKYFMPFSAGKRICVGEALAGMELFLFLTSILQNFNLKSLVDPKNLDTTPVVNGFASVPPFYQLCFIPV
Sequence of Cytochrome P450 2D6 (P10635 whole entry): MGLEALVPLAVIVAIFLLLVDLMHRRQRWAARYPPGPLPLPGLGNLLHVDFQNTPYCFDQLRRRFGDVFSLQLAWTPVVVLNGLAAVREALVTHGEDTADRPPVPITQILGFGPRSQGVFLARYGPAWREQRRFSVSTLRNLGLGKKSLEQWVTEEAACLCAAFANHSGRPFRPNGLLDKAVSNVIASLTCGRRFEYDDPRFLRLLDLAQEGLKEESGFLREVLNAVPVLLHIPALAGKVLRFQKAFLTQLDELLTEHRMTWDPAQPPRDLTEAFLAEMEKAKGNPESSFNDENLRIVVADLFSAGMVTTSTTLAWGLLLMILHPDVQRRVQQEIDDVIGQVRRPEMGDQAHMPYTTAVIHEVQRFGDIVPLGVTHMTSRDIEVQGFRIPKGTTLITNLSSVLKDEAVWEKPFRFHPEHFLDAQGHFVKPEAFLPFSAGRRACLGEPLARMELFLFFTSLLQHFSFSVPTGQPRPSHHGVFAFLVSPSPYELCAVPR
Sequence of CYP2D6 (P10635 whole entry): as above
Sequence of CYP3A4 (P08684 whole entry): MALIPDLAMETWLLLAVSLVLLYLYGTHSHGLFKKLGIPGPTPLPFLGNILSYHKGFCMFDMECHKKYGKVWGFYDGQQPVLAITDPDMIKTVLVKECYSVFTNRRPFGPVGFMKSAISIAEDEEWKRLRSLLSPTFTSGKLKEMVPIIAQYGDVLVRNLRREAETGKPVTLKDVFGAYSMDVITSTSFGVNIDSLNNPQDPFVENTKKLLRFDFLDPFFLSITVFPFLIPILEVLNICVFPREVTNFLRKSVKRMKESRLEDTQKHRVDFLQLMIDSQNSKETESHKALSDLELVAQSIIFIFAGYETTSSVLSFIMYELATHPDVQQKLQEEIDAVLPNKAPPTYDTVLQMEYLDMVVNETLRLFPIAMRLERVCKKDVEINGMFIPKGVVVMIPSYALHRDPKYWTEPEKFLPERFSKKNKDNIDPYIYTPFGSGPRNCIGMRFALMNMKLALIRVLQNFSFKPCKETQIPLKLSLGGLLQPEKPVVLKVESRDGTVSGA
Sequence of Cytochrome P450 3A4 (P08684 whole entry): as above

COc1cc(C)[nH]c(=O)c1CNC(=O)c1c(C)n([C@H](C)C2CCN(CC(F)(F)F)CC2)c2ccccc12 [CPI-1205]
Activity [1]: Non-Toxic
Vd [2]: 2.22 L/kg
Tmax [3]: 1.67 h
CL [4]: 97%
CL free [5]: 527 mL/min/kg
fCmax [6]: 1.41 µM
clearance [7]: 23.5 mL/min/kg
CLH [8]: 99.6 µL/min
CLH [9]: 73.9 µL/min
F [10]: 44.6%
TDI (Cytochrome P450 3A4): Not Active
half-life [11]: 0.653 h
half-life [12]: 1.63 h
TDI (Cytochrome P450 2C8): Not Active
clearance [13]: 36 mL/min/kg
CLH [14]: 159 µL/min
inhibition at 10 µM (CYP2C8): 41%
TDI (Cytochrome P450 2D6): Not Active
inhibition at 10 µM (CYP3A4): 0%
concentration at 408 h [15]: 11400 ng/mL
Cmax [16]: 5.88 µM
Cmax [17]: 67.4 µM
CL [18]: 40%
Activity (KARPAS-422): Active
Fu [19]: 0.021%
inhibition at 10 µM (CYP2D6): 9.5%
TDI (Cytochrome P450 2C9): Not Active
PPB [20]: 97.9%
AUC(0-inf) [21]: 3.19 µM·h
fraction unbound [22]: 0.101
TDI (Cytochrome P450 1A2): Not Active
clearance [23]: 53.2 mL/min/kg
Activity [24]: Non-Toxic
